In publication PMC9687798, “Atypical Substrates of the Organic Cation Transporter 1” (Biomolecules, 2022):
“Also recorded” adds a separate entry of the source.

Columns and labels:
[1] = no reference given; cited from earlier work
mutant human OCT1 D474N = target: T1, mutant human OCT1 D474N (Homo sapiens, UniProt O15245, D474N); assay: Cellular uptake by HEK293 cells overexpressing variant OCT1 D474N; format: cell-based; conditions: 1, 10 and 100 µM, 120 s
T1 construct: expressed in transfected cells
T1 sequence (O15245 1-554 D474N): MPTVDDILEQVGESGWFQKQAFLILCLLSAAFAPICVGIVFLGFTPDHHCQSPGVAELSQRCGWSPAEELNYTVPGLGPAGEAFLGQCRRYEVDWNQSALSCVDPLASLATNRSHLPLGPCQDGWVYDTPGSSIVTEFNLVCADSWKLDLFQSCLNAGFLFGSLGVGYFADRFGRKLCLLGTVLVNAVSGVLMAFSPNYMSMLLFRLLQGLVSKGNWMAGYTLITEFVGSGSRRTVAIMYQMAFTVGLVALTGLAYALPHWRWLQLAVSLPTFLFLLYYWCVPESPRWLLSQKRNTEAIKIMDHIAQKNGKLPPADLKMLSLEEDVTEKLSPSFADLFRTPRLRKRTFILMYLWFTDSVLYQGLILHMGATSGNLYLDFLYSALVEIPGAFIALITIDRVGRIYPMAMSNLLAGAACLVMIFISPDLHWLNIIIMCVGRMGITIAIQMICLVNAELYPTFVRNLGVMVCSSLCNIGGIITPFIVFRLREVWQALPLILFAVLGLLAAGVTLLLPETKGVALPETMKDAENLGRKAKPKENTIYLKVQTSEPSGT

OCT1 (wild-type, OCT1*1) = OCT1 (wild-type, OCT1*1) (Homo sapiens, UniProt O15245); assay: Concentration-dependent uptake (transport kinetics) in HEK293 cells overexpressing OCT1 wild-type; conditions: human, HEK293 cells stably overexpressing human OCT1*1 (wild-type), pH 7.4, KM (±SEM), net uptake (OCT1 minus empty vector), HEK293, 0.1-1000 µM substrate, Michaelis–Menten
OCT1 = conditions: cited from earlier work
[2] = Concentration-dependent uptake into empty vector-transfected HEK293 cells; format: cell-based, human; conditions: human, empty vector (pcDNA5/FRT)-transfected HEK293 cells, pH 7.4; empty vector-transfected HEK cells; read-out: intrinsic clearance
Procedure: (§1) The transport experiments were performed using HEK293 cells that overexpress human OCT1*1 (wild-type), mutant human OCT1 D474N, variant human OCT1*2 (M420del) and OCT1*3 (R61C), wild-type human OCT2, and OCT3 after stable transfection. The wild-type cell lines of OCT1 and OCT2, as well as the variant cell lines OCT1*2 and *3, were generated using the Flp-In system (Thermo Fisher Scientific, Darmstadt, Germany) as described in previous publications. The cell line overexpressing OCT3 was a kind gift from Dr. Koepsell and Dr. Gorbulev (University of Würzburg, Germany). Cells transfected with the empty pcDNA5/FRT vector were used for the transport experiments as a control cell line. All cells were cultured approximately up to passage 30.
(§2) Forty-eight hours before the transport experiments, 600,000 cells were plated on 12-well plates pre-coated with poly-D-lysine and incubated at 37 °C with 5% CO2. The prepared 12-well plate with cells was positioned on a heating plate pre-warmed to 37 °C. After removing the medium, the cells were washed with 37 °C HBSS+ (10 mM HEPES in Hank’s balanced salt solution, pH 7.4). Then, one pre-defined concentration of a substrate was added to each well. The incubation period was stopped by adding 2 mL of 4 °C HBSS+ and removing the cells from the heating plate. The cells were washed twice with 4 °C HBSS+. For cell lysis, the cells were incubated for 15 min with 500 µL of 80% acetonitrile (LGC Standards, Wesel, Germany), which contained a respective internal standard (Table 1).
(§3) For time-dependent transport, the cells were incubated with 1 µM of the substance for 15 to 240 s to determine the linear uptake range ≥ 15 s. For concentration-dependent transport, the cells were incubated with defined substrate concentrations (0.1, 1, 10, 30, 100, 300, 600, 1000 µM) for the respective pre-defined incubation times. […]; 100 µM) and pre-defined incubation times. The uptake by a transporter was normalised to the uptake by empty vector-transfected cells. […] The results of transport experiments were normalized to the total protein concentration per well. Total protein quantification was performed using a bicinchoninic acid assay with bovine serum albumin as standard.
(§4) The ratios of cellular uptake were calculated by dividing the total uptake of transporter-overexpressing cells by the total uptake into empty vector transfected cells. The concentration-dependent cellular net uptake was used for analysis of transport kinetics by subtracting for each substrate concentration the uptake of empty vector-transfected cells from the uptake of transporter-overexpressing cells. The transport kinetic parameters Vmax and KM were determined with non-linear regression by using the Michaelis–Menten equation for net uptake data and by using the Michaelis–Menten equation extended with a linear term for total uptake data (GraphPad Prism 5.01, GraphPad software, LA Jolla, CA, USA). The intrinsic clearance Clint was expressed with the ratio of Vmax and KM.

[3] = system: empty vector-transfected HEK cells; assay: as above; format: cell-based, human; conditions: uptake into empty vector-transfected cells
Procedure: as §1, §2, §3, §4

For `COc1cc(Cc2cnc(N)nc2N)cc(OC)c1OC` [Trimethoprim, trimethoprim], the “fraction eliminated via the kidneys” value [1] is given as “about 75%”.

In the case of `CCCCC[C@H](O)/C=C/[C@@H]1[C@@H](C/C=C\CCCC(=O)O)[C@@H](O)C[C@H]1O` [Prostaglandin F2α, prostaglandin F2α], the “uptake of prostaglandins by OCT1 D474N in comparison to wild-type” value (mutant human OCT1 D474N) is reported as “reduced to the level of the control cell line” and the Km (OCT1 (wild-type, OCT1*1)) is reported as 719 µM.

For `N=C(N)c1ccc(OCCCCCOc2ccc(C(=N)N)cc2)cc1` [Pentamidine, pentamidine], the Km (OCT1) is listed as 36.4 µM and the intrinsic clearance (OCT1) is listed as 4.3 µL/mg protein/min.

In the case of `CCCCC[C@H](O)/C=C/[C@H]1[C@H](O)CC(=O)[C@@H]1C/C=C\CCCC(=O)O` [Prostaglandin E2, prostaglandin E2], the “uptake of prostaglandins by OCT1 D474N in comparison to wild-type” value (mutant human OCT1 D474N) is reported as “reduced to the level of the control cell line; also recorded: almost abolished”.

In the case of `N[C@@H](Cc1ccc(O)c(O)c1)C(=O)O` [Levodopa, levodopa], the microsomal CLint [2] is reported as 54.4 µL/min/mg, the Km [3] is reported as 380 µM and the Vmax [3] is reported as 20,681 pmol/mg protein/min.
